# Results taken from patent US20250049735A1, “MEDICINE FOR STEATOHEPATITIS” (The University of Tokyo, priority 2021, published 2025).
# Like-named read-outs stand apart in the source and are kept apart here.
# Columns and labels:
# [1] = target: T1, ATP8B1+CDC50A (Homo sapiens, UniProt O43520); experiment: Flippase (ATP8B1) assay: incorporation of NBD-phospholipids into CHO-K1 cells; format: cell-based; details: 15° C.
# T1 construct: expressed in transfected cells; host or cells: CHO-K1 cells (CCL-61, ATCC), transiently transfected with PEI MAX
# T1 sequence (O43520 1-1251): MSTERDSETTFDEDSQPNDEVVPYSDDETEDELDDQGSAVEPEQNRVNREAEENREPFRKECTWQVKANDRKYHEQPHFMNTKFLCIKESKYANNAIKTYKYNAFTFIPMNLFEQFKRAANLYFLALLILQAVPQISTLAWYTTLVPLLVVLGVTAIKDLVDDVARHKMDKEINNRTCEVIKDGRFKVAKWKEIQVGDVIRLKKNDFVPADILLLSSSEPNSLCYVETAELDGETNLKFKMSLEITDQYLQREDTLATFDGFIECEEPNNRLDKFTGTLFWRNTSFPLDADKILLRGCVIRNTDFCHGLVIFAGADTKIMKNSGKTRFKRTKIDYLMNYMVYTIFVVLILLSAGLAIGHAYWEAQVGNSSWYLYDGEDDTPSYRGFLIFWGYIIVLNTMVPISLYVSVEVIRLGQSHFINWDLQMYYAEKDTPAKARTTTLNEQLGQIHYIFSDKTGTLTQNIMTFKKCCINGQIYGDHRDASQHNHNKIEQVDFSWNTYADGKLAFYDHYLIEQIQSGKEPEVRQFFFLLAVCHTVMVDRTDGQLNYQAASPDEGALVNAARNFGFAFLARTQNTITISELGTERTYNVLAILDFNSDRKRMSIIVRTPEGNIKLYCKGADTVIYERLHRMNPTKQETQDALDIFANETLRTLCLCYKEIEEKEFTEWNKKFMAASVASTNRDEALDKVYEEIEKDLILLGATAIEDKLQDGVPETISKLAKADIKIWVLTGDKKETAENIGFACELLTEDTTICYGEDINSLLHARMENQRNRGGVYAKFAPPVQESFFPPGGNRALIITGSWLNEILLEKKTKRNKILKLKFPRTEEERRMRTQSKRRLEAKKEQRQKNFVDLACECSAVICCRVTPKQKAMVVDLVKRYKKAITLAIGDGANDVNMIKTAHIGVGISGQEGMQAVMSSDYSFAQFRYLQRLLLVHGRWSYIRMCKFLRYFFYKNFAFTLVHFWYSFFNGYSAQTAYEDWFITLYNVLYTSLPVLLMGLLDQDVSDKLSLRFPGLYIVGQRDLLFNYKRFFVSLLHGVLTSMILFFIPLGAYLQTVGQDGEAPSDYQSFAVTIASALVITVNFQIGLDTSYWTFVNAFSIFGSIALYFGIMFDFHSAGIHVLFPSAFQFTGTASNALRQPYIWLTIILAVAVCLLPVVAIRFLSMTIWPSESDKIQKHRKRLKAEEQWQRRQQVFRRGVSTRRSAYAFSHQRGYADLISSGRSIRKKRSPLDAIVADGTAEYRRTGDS
# T1 sequence (Q9NV96 1-361 partner): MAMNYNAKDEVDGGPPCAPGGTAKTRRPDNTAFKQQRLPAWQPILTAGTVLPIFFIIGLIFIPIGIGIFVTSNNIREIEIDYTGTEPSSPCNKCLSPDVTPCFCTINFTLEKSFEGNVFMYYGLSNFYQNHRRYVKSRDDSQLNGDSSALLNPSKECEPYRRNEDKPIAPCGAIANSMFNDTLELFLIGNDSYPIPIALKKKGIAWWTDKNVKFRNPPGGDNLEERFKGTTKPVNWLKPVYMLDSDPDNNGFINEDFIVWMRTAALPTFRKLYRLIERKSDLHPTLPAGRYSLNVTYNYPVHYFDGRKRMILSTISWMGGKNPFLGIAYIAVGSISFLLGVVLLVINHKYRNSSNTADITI
# Experimental: The experiment regarding incorporation of NBD-phospholipids into cells was carried out according to the previous reports (Suzuki et al., Nature 468, 834-838 2010; Takatsu et al., J. Biol. Chem., 289:33543-33556 2014).
# To allow CDC50A alone, or ATP8B1 and CDC50A, to express in CHO-K1 cells, the CHO-K1 cells (CCL-61, ATCC, Manassas, VA) were transfected with the plasmids (pShuttle-EV, or pShuttle-ATP8B1-FLAG and pShuttle-HA-CDC50A), using PEI MAX (Polysciences, Warrington, PA). Forty-eight hours after the transfection, the cells were detached from dishes and were collected in PBS containing 5 mM EDTA, and thereafter, the cells were recovered in a precipitate by centrifugation. The cells (2×10^6 cells/sample) were washed and were then equilibrated at 15° C. for 15 minutes in 500 μL of HBSS (14025092, Thermo Fisher Scientific). An equal volume of 1 μg/mL 18:1-06:0 NBD-PC (810132, Avanti Polar Lipids) or 10 μg/mL 12:0 LysoNBD-PC (810128P: Avanti Polar Lipids) was added to the cell suspension, and the obtained mixture was then incubated at 15° C. Thereafter, at each time point, 300 μL of a cell suspension was collected, and was mixed with 300 μl of HBSS (ice cold) containing 5% fatty acid-free BSA (A6003: Sigma-Aldrich) to extract NBD-lipids incorporated into the exoplasmic leaflet of the plasma membrane as well as unincorporated NBD-Lipids.
# Next, 10,000 cells were analyzed with a BD FACSCelesta (BD Bioscience, San Jose, CA) to measure the fluorescence of NBD-lipids incorporated into the cytoplasmic leaflet of the plasma membrane. The mean value of the fluorescence intensities per cell was calculated. Propidium iodide (P378: DOJINDO, Kumamoto, Japan) positive cells were excluded from the analysis.
# [2] = test system: Tax-iIEC-KO mice; details: 8 to 10 weeks of age
# From the text: Atp8b1^flox/flox mice were mated with villin-Cre/ERT2 transgenic mice (Stock No. 020282; The Jackson Laboratory), and Atp8b1^flox/+; villin-Cre/ERT2 mice in the obtained offsprings were then mated with Atp8b1^flox/flox mice to obtain Tamoxifen-induced, intestinal epithelial cell (IEC)-specific Atp8b1 knockout (Atp8b1Tax-iIEC-KO: Atp8b1^flox/flox; villin-Cre/ERT2) mice (Atp8b1 Tax-iIEC-KO mice). The resulting Atp8b1 Tax-iIEC-KO mice and littermate Atp8b1^flox/flox mice were used for animal experiments.
# ALT and AST were determined by automatic measurement with Dri-chem (FUJIFILM, Tokyo, Japan).
# The concentrations of choline, betaine, dimethylglycine (N,N-dimethylglycine) and glycerophosphorylcholine (sn-glycero-3-phosphocholine) in plasma were determined by liquid chromatography/tandem mass spectrometry (LC/MS/MS) assay. The sample was mixed with 98-fold volume of ethanol and 1-fold volume of the internal standard (IS) solution (10 μmol/L choline in water, 10 μmol/L glycerophosphorylcholine in water, and 1 μmol/L betaine in water). After vortex mixing, the sample was centrifuged at 21,500×g at 4° C. for 5 minutes. The obtained supernatant was injected into a UHPLC Nexera liquid chromatography system (Shimadzu co., Kyoto, Japan) equipped with an Ascentis Express HILIC column (2.1×50 mm, 2.7 μm, Merck KGaA, Darmstadt, Germany), and was then maintained at 4° C. The analyte was separated from the internal standard by gradient elution of mobile phase A (10 mmol/L ammonium acetate in water) and of mobile phase B (acetonitrile/water mixture) (99:1, v/v)). The gradient elution was carried out under the following conditions: 0-2 min., 82.5% B; 2-4 min., 82.5% to 5% B and 4-7 min. 5% B with a flow rate of 0.6 mL/min. The eluate was directly subjected to electrospray ionization under a positive ion mode using a 5500QTRAP mass spectrometer (Sciex pte. ltd., Toronto, Canada). All target molecules were scanned by selected reaction monitoring (SRM) mode.
# Eight-week-old Tax-iIEC-KO mice and control mice were started to be orally administered with a normal saline, or with 50 mg/kg, 150 mg/kg or 500 mg/kg chloride choline, three times a day, and at the same time, the Tax-iIEC-KO mice and the control mice were administered with 1 mg/day of Tamoxifen for 5 consecutive days. Oral administration with a normal saline, or with 50 mg/kg, 150 mg/kg or 500 mg/kg chloride choline, three times a day, was continued, and thereafter, the mice were dissected at 10 weeks of age. The doses of 150 mg/kg and 500 mg/kg were determined by estimating the amount of choline consumed by the 0.3% choline supplemented diet group and the 1% choline supplemented diet group based on the daily food intake of mice.
# [3] = test system: Caco-2 cells; experiment: Cytotoxicity test (LDH release) in wild-type Caco-2 cells; details: wild-type Caco-2 cell line; 24 hours; various concentrations
# Experimental: (§1) Caco-2 cells were cultured in DMEM (Dulbecco's modified Eagle's medium) (11995-065, Thermo Fisher Scientific) supplemented with 10% fetal bovine serum (10437, Thermo Fisher Scientific), 1% nonessential amino acids (11140-050, Thermo Fisher Scientific), 1% penicillin and streptomycin (15140-122, Thermo Fisher Scientific). The cells were cultured under conditions of 37° C., 5% CO2 and a humidity of 95%.
# (§2) 5 mM Edelfosine dissolved in ethanol (CAY-60912-10, Cayman), 10 mg/mL lysophosphatidylcholine (LysoPC) dissolved in water/ethanol (1:1, v/v) (123-03781, FUJIFILM Wako Pure Chemical), and 10 mg/mL lysophosphatidylethanolamine (LysoPE) (L4754, Sigma-Aldrich) dissolved in ethanol were prepared as stock solutions. Caco-2 cells and ATP8B1 KO Caco-2 cells were seeded on 96-well plates at a cell density of 50,000 cells/well, and were then cultured, while replacing the medium with a fresh medium every 2 days. After 7 days of the culture, the cells were cultured for 24 hours in a new medium supplemented with various concentrations of edelfosine, lysophosphatidylcholine and lysophosphatidylethanolamine. Cytotoxicity was measured using, as an indicator, the amount of lactate dehydrogenase (LDH) released from the injured cells into the medium. The amount of LDH in the medium was measured using the Cytotoxicity LDH Assay Kit-WST (CK12, Dojindo) according to the instructions included therewith.
# [4] = test system: ATP8B1 KO Caco-2 cells; experiment: Cytotoxicity test (LDH release) in ATP8B1 KO Caco-2 cells; details: ATP8B1 KO Caco-2 cell line; 24 hours; various concentrations
# Experimental: as §1, §2
# [5] = to such an extent that extension of autologous liver survival was expected; cited from earlier work
# [6] = CHO-K1 cells expressing functional ATP8B1 (ATP8B1+CDC50A)
# [7] = CHO-K1 cells without ATP8B1 expression (EV)
# [8] = oral 50 mg/kg three times a day
# [9] = oral 150 mg/kg three times a day
# [10] = oral 500 mg/kg three times a day
molecule,measurement,setting,value
18:1-06:0 NBD-PC,incorporation of NBD-lipid into the cells (flow cytometry),[1]; [6],incorporated into the cells
same,incorporation of NBD-lipid into the cells (flow cytometry),[1]; [7],incorporated into the cells in reduced amounts
"C[N+](C)(C)CCOP(=O)([O-])OCC(O)COC(=O)CCCCCCCCCCCNc1ccc([N+](=O)[O-])c2nonc12 (stereo not shown) [NBD-LysoPC, 12:0 LysoNBD-PC]",incorporation of NBD-lipid into the cells (flow cytometry),[1]; [6],incorporated into the cells
same,incorporation of NBD-lipid into the cells (flow cytometry),[1]; [7],incorporated into the cells in reduced amounts
C[N+](C)(C)CCO.[Cl-] [chloride choline],body weight loss of the Tax-iIEC-KO mice,[2]; [8],suppression
same,concentration of betaine in the liver,[2]; [8],recovered up to the same level as those in the control mice
same,concentration of choline in the liver,[2]; [8],recovered up to the same level as those in the control mice
same,liver injury markers (AST and ALT),[2]; [8],normalization
same,body weight loss of the Tax-iIEC-KO mice,[2]; [9],suppression
same,concentration of betaine in the liver,[2]; [9],recovered up to the same level as those in the control mice
same,concentration of choline in the liver,[2]; [9],recovered up to the same level as those in the control mice
same,liver injury markers (AST and ALT),[2]; [9],normalization
same,body weight loss of the Tax-iIEC-KO mice,[2]; [10],suppression
same,concentration of betaine in the liver,[2]; [10],recovered up to the same level as those in the control mice
same,concentration of choline in the liver,[2]; [10],recovered up to the same level as those in the control mice
same,liver injury markers (AST and ALT),[2]; [10],normalization
lysophosphatidylcholine [LPC],cytotoxicity (LDH released into the medium),[3],did not cause significant cytotoxicity
same,cytotoxicity (LDH released into the medium),[4],increased cytotoxicity in a dose-dependent manner
sodium phenylbutyrate,therapeutic effects on PFIC1,[5],did not exhibit therapeutic effects on PFIC1
